Reference: publication PMC7179198, “Chiral Pyridine-3,5-bis- (L-phenylalaninyl-L-leucinyl) Schiff Base Peptides as Potential Anticancer Agents: Design, Synthesis, and Molecular Docking Studies Targeting Lactate Dehydrogenase-A” (Molecules, 2020)
Values belong to the compound of their own block, whether it stands above or below them.

How the values were obtained:
[1] = tested on: breast cancer cells (MCF-7); assay: In vitro cytotoxic activity against MCF-7 cancer cells (MTT); assay type: cell-based, human; settings: for IC50: MCF-7, MTT
Excerpt: (§1) Following the synthesis of the new bis-dipeptide derivatives, we evaluated the anticancer potentials of these derivatives in vitro against breast cancer cells (MCF-7) as well as normal non tumorigenic MCF-10A cells. The obtained results were expressed as IC50 values in µM and were also compared for both cell lines with positive reference controls; that is cisplatin and milaplatin. Generally, it can be seen that our newly synthesized bis-dipeptides have potential anticancer activities against MCF-7 cells.
Human breast cancer (MCF-7) cells, obtained from Sigma-Aldrich Chemie GmbH, Taufkirchen, Germany, were propagated in RPMI-1640 supplemented with 10% heat inactivated FBS, 2 mM L-glutamine, and 1% standard antibiotic solution. Cells were incubated in a 5% CO2humidified incubator at 37 °C and passaged bi-weekly. The in vitro anti-proliferative activity of the newly synthesized derivatives was assayed using the standard MTT technique.
(§2) The results were expressed as IC50. Experiments were repeated at least in triplicate, to obtain good reproducibility between replicate wells with standard errors below 10%. Furthermore, the cytotoxic effects of the prepared derivatives were evaluated against normal nonmalignant cells, non-tumorigenic MCF-10A, in order to find out if the synthesized derivatives have toxicity against normal cells. Additionally, the results were compared with reference compounds (cisplatin and milaplatin) as positive controls.

[2] = tested on: non-tumorigenic MCF-10A cells; assay: Cytotoxicity against normal non-tumorigenic MCF-10A cells (MTT); assay type: cell-based; settings: MCF-10A vs MCF-7
Excerpt: as §1
The fact that normal cells are usually less affected by possible anticancer candidates may be attributed to the fact that, upon cancer initiation and development, cancer cells overcome normal growth regulation pathways present in normal cells, and thusthey tend to be affected by other different regulatory growth pathways, which are not evident in the case of normal cells.
as §2

[3] = target: T1, recombinant human LDHA protein (Homo sapiens, UniProt P00338); assay: LDHA inhibition assay (colorimetric NADH kit); assay type: biochemical; settings: recombinant human LDHA
T1 construct: purchased Abcam ab93699
Procedure: The newly synthesized compounds 4–6 were evaluated for their ability to inhibit LDHA in comparison with galloflavin as a known isoform nonselective LDHA inhibitor [44, 45]. The choice of galloflavin as a reference was based on the fact that it is potent anticancer agent and commercially available.
Lactate dehydrogenase assay kit (Abcam, ab102526) and recombinant human LDHA protein (Abcam, ab93699) were used to assess the inhibitory effect of the tested compounds. First, we generated an NADH standard curve for colorimetric detection by measuring the OD (450 nm) at different molar amounts of NADH. The linear regression equation of the curve was derivatized in Graphpad Prism. Tested compounds were dissolved in DMSO and their inhibitory activity was assessed at 140 and 300 μM strength. Galloflavin (Sigma, SML0776) at the same molar concentration was used as a known LDH inhibitor. The master reaction mix composed of LDH assay buffer and 10 ng human LDHA […] per reaction was prepared. Tested compounds were added and the final reaction volume was adjusted to 50 μL. Absorbance at 450 nm was taken after 2–3 min (T-initial) and continued every minute for 118 min (T-final). The change in measurement over time (delta A450) was calculated as T-final minus T-initial. The amount of NADH generated by the assay between T-initial and T-final was deduced by comparing the A450 of each sample to the standard NADH standard curve. LDHA activity was calculated in milliunits per mL as the amount of NADH generated by the assay / (reaction time in minutes (118) x reaction volume in mL ([…]).

p53 ubiquitination [4] = assay: In vitro p53 ubiquitination inhibition; assay type: biochemical; settings: for IC50: read-out: in vitro IC50, suppression of p53 ubiquitination
Excerpt: (§3) Several cancer prevention drugs depend mainly on the ubiquitination activities against p53 as a suppressor protein. When E3 ubiquitin protein ligase HDM2 binds to p53, the resulting mechanism is the inhibition of its ability as a transcription activator. Accordingly, the regulative mechanism is acting negatively. Therefore, blocking the p53 binding site on HDM2 provides for a better possible antitumorigenic molecule. Currently, murine double minute 2 (MDM2) is considered as the regulator of choice when it comes to investigatingp53 inhibition.
(§4) Different prepared derivatives 4–6 were evaluated for their inhibitory potential against p53 ubiquitination according to the previously reported procedure.

p53 ubiquitination [5] = assay: In vivo p53 ubiquitination inhibition; settings: for IC50: read-out: in vivo IC50, suppression of p53 ubiquitination
Excerpt: as §3, §4

MCF-7 xenografts = assay: In vivo human breast cancer xenograft; set-up: species or system nude mice; settings: MCF-7 xenograft, eight days of treatment
Excerpt: In this section, we developed a breast cancer animal xenograft model for the evaluation of thein vivo anticancer potential of our newly prepared compounds. […] After wards, the noticeable effects were more or less constant up to 14 days of treatment. […] Our results are in good agreement with those previously published on the in vivo anticancer potential of Schiff bases owing to apoptosis induction.
The breast cancer xenograft model protocol was approved by the Institutional Animal Use and Care Committee of the University of Alabama at Birmingham (50-01-05-08B). Female athymic pathogen-free nude mice (nu/nu, 4–6 weeks) were used. Firstly, MCF-7 xenografts were initiated by implanting pellets slowly releasing estrogen for two months (1.7mg 17β-estradiol/pellet) subcutaneously in the female nude mice. After 24 h, confluent MCF-7 cells were harvested, washed two times with serum-free medium, re-suspended, and injected subcutaneously (s.c.) (5 × 10^6 cells, total volume 0.2 mL) into the left inguinal area of the mice. Caliper measurement was used to measure tumor growth in two perpendicular diameters of the implant after 48 h, and its volume was determined. Mice grafted with MCF-7 were divided into different groups (7–10 mice/group). Untreated mice received the solvent only. Treated groups received different prepared derivatives as previously described.

Compound: CC(C)CC(NC(=O)C(Cc1ccccc1)NC(=O)c1cncc(C(=O)NC(Cc2ccccc2)C(=O)NC(CC(C)C)C(=O)NN=C2CCCCCC2)c1)C(=O)NN=C1CCCCCC1 (centres unmarked) [3c, N^3,N^5-Bis{1-[(1-(2-cycloheptylidenehydrazinyl)-4-methyl-1-oxopentan-2-yl)amino]-1-oxo-3-phenylpropan-2-yl}pyridine-3,5-dicarboxamide]
melting point: 221 to 223 °C

Compound: CC(=NNC(=O)C(CC(C)C)NC(=O)C(Cc1ccccc1)NC(=O)c1cncc(C(=O)NC(Cc2ccccc2)C(=O)NC(CC(C)C)C(=O)NN=C(C)c2ccc([N+](=O)[O-])cc2)c1)c1ccc([N+](=O)[O-])cc1 (centres unmarked) (hydrate or solvate) [5e, N^3,N^5-Bis{1-[(4-methyl-1-(2-(1-(4-nitrophenyl)ethylidene)hydrazinyl)-1-oxopentan-2-yl)-amino]-1-oxo-3-phenylpropan-2-yl}pyridine-3,5-dicarboxamide]
melting point: 256 to 258 °C

Compound: CC(=NNC(=O)C(CC(C)C)NC(=O)C(Cc1ccccc1)NC(=O)c1cncc(C(=O)NC(Cc2ccccc2)C(=O)NC(CC(C)C)C(=O)NN=C(C)c2cccnc2)c1)c1cccnc1 (centres unmarked) [4b, N^3,N^5-Bis{1-[(4-methyl-1-oxo-1-(2-(1-(pyridin-3-yl)ethylidene)hydrazinyl)pentan-2-yl)-amino]-1-oxo-3-phenylpropan-2-yl}pyridine-3,5-dicarboxamide]
IC50 ([1]; Homo sapiens, MCF7): 8.12 ± 0.14 µM
more active than cisplatin against MCF-7 ([1]; MCF-7, vs cisplatin): about 39.1%
more active than milaplatin against MCF-7 ([1]; MCF-7, vs milaplatin): ~55.9%
fold higher IC50 against MCF-10A than MCF-7 [2]: about 142.7 fold

Compound: CC(C)CC(NC(=O)C(Cc1ccccc1)NC(=O)c1cncc(C(=O)NC(Cc2ccccc2)C(=O)NC(CC(C)C)C(=O)NN=C2CCCCC2)c1)C(=O)NN=C1CCCCC1 (centres unmarked) [3b, N^3,N^5-Bis{1-[(1-(2-cyclohexylidenehydrazinyl)-4-methyl-1-oxopentan-2-yl)amino]-1-oxo-3-phenylpropan-2-yl}pyridine-3,5-dicarboxamide]
melting point: 198 to 200 °C

Compound: O=c1oc2c(cc1O)oc(=O)c1cc(O)c(O)c(O)c12 [galloflavin, reference compound]
IC50 [3]: 161.1 ± 0.32 µM

Compound: N^3,N^5-Bis{1-[(1-(2-(1-(4-methoxyphenyl)ethylidene)hydrazinyl)-4-methyl-1-oxopentan-2-yl)-amino]-1-oxo-3-phenylpropan-2-yl}pyridine-3,5-dicarboxamide [5a]
IC50 [1]: 17.6 ± 0.27 µM
fold higher IC50 against MCF-10A than MCF-7 [2]: ~145.9 fold
IC50 (p53 ubiquitination [4]): 44.33 ± 0.34 µM

Compound: milaplatin [reference compound]
IC50 [1]: 18.43 ± 0.13 µM

Compound: CC(C)CC(NC(=O)C(Cc1ccccc1)NC(=O)c1cncc(C(=O)NC(Cc2ccccc2)C(=O)NC(CC(C)C)C(=O)NN=C2CCCCCCC2)c1)C(=O)NN=C1CCCCCCC1 (centres unmarked) [3d, N^3,N^5-Bis{1-[(1-(2-cyclooctylidenehydrazinyl)-4-methyl-1-oxopentan-2-yl)amino]-1-oxo-3-phenylpropan-2-yl}pyridine-3,5-dicarboxamide]
melting point: 242 to 244 °C

Compound: N.N.[Cl][Pt][Cl] [cisplatin, reference compound]
IC50 [1]: 13.34 ± 0.11 µM

Compound: CC(C)CC(NC(=O)C(Cc1ccccc1)NC(=O)c1cncc(C(=O)NC(Cc2ccccc2)C(=O)NC(CC(C)C)C(=O)NN=C2CCCC2)c1)C(=O)NN=C1CCCC1 (centres unmarked) [3a, N^3,N^5-Bis{1-[(1-(2-cyclopentylidenehydrazinyl)-4-methyl-1-oxopentan-2-yl]amino)-1-oxo-3-phenylpropan-2-yl}pyridine-3,5-dicarboxamide]
melting point: 232 to 234 °C

Second part, led by results:

melting point: 208 to 210 °C
Compound: CC(=NNC(=O)C(CC(C)C)NC(=O)C(Cc1ccccc1)NC(=O)c1cncc(C(=O)NC(Cc2ccccc2)C(=O)NC(CC(C)C)C(=O)NN=C(C)c2cccnc2)c1)c1cccnc1 (centres unmarked) (hydrate or solvate) [4b, N^3,N^5-Bis{1-[(4-methyl-1-oxo-1-(2-(1-(pyridin-3-yl)ethylidene)hydrazinyl)pentan-2-yl)-amino]-1-oxo-3-phenylpropan-2-yl}pyridine-3,5-dicarboxamide]

IC50 (p53 ubiquitination [5]): 0.31 ± 0.001 µM
melting point: 205 to 207 °C
Compound: CC(C)CC(NC(=O)C(Cc1ccccc1)NC(=O)c1cncc(C(=O)NC(Cc2ccccc2)C(=O)NC(CC(C)C)C(=O)NN=Cc2ccco2)c1)C(=O)NN=Cc1ccco1 (centres unmarked) [6a, N^3,N^5-bis{1-[(1-(2-(furan-2-ylmethylene)hydrazinyl)-4-methyl-1-oxopentan-2-yl)amino]-1-oxo-3-phenylpropan-2-yl}pyridine-3,5-dicarboxamide]

melting point: 216 to 218 °C
Compound: CC(=NNC(=O)C(CC(C)C)NC(=O)C(Cc1ccccc1)NC(=O)c1cncc(C(=O)NC(Cc2ccccc2)C(=O)NC(CC(C)C)C(=O)NN=C(C)c2ccccn2)c1)c1ccccn1 (centres unmarked) (hydrate or solvate) [4a, N^3,N^5-Bis{1-[(4-methyl-1-oxo-1-(2-(1-(pyridin-2-yl)ethylidene)hydrazinyl)pentan-2-yl)amino]-1-oxo-3-phenylpropan-2-yl}pyridine-3,5-dicarboxamide]

IC50 (p53 ubiquitination [4]): 21.34 ± 0.13 µM
IC50 (p53 ubiquitination [5]): 0.12 ± 0.0011 µM
Compound: CC(=NNC(=O)C(CC(C)C)NC(=O)C(Cc1ccccc1)NC(=O)c1cncc(C(=O)NC(Cc2ccccc2)C(=O)NC(CC(C)C)C(=O)NN=C(C)c2ccccn2)c1)c1ccccn1 (centres unmarked) [4a, N^3,N^5-Bis{1-[(4-methyl-1-oxo-1-(2-(1-(pyridin-2-yl)ethylidene)hydrazinyl)pentan-2-yl)amino]-1-oxo-3-phenylpropan-2-yl}pyridine-3,5-dicarboxamide]
decrease in tumor growth (MCF-7 xenografts): 81.3%
fold higher inhibitory effect than positive control (diphenyl imidazole), in vitro p53 ubiquitination (p53 ubiquitination [4]; vs diphenyl imidazole): about 12.2 fold
fold higher inhibitory effect than positive control (diphenyl imidazole), in vivo p53 ubiquitination (p53 ubiquitination [5]; in vivo, vs diphenyl imidazole): ~15.7 fold

melting point: 218 to 220 °C
Compound: CC(C)CC(NC(=O)C(Cc1ccccc1)NC(=O)c1cncc(C(=O)NC(Cc2ccccc2)C(=O)NC(CC(C)C)C(=O)NN=Cc2cccs2)c1)C(=O)NN=Cc1cccs1 (centres unmarked) [6b, N^3,N^5-bis{1-[(4-methyl-1-oxo-1-(2-(thiophen-2-ylmethylene)hydrazinyl)pentan-2-yl)amino]-1-oxo-3-phenylpropan-2-yl}pyridine-3,5-dicarboxamide]

melting point: 196 to 198 °C
Compound: CC(=NNC(=O)C(CC(C)C)NC(=O)C(Cc1ccccc1)NC(=O)c1cncc(C(=O)NC(Cc2ccccc2)C(=O)NC(CC(C)C)C(=O)NN=C(C)c2ccncc2)c1)c1ccncc1 (centres unmarked) (hydrate or solvate) [4c, N^3,N^5-Bis{1-[(4-methyl-1-oxo-1-(2-(1-(pyridin-4-yl)ethylidene)hydrazinyl)pentan-2-yl)-amino]-1-oxo-3-phenylpropan-2-yl}pyridine-3,5-dicarboxamide]
